Assay results reported in the supplement of paper PMC10307832.

Experiments:
Experiment in all cases: relative viability (nuclei count vs DMSO), 5 days (fraction); higher = more cells survive
Decitabine + Navitoclax = compound: Nc1ncn([C@H]2C[C@H](O)[C@@H](CO)O2)c(=O)n1 [Decitabine] + CC1(C)CCC(c2ccc(Cl)cc2)=C(CN2CCN(c3ccc(C(=O)NS(=O)(=O)c4ccc(N[C@H](CCN5CCOCC5)CSc5ccccc5)c(S(=O)(=O)C(F)(F)F)c4)cc3)CC2)C1 [Navitoclax] (partner 0.5 µM)
How it was run: (§1)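 Dosing by pin tool came one day after lung cancer cell lines were seeded in 1536-well plates, using either one drug or a fixed anchor-drug dose plus five library-drug doses (not always all listed) in √10 steps. After 5 days, nuclei were counted on 4× images. Relative viability is treated-well nuclei count divided by vehicle-well nuclei count, and values are medians of duplicate plates.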

Decitabine + OSI-027 = compound: Nc1ncn([C@H]2C[C@H](O)[C@@H](CO)O2)c(=O)n1 [Decitabine] + COc1cccc2cc(-c3nc([C@H]4CC[C@H](C(=O)O)CC4)n4ncnc(N)c34)[nH]c12 [OSI-027] (partner 0.5 µM)
How it was run: as §1

Decitabine + Pictilisib = compound: Nc1ncn([C@H]2C[C@H](O)[C@@H](CO)O2)c(=O)n1 [Decitabine] + CS(=O)(=O)N1CCN(Cc2cc3nc(-c4cccc5[nH]ncc45)nc(N4CCOCC4)c3s2)CC1 [Pictilisib] (partner 1 µM)
How it was run: as §1

Row | Cell Line | relative viability (Decitabine + Navitoclax; first compound 0.04 µM) | relative viability (Decitabine + Navitoclax; first compound 0.1265 µM) | relative viability (Decitabine + Navitoclax; first compound 0.4 µM) | relative viability (Decitabine + Navitoclax; first compound 1.265 µM) | relative viability (Decitabine + Navitoclax; first compound 4 µM) | relative viability (Decitabine + OSI-027; first compound 0.04 µM) | relative viability (Decitabine + OSI-027; first compound 0.1265 µM) | relative viability (Decitabine + OSI-027; first compound 0.4 µM) | relative viability (Decitabine + OSI-027; first compound 1.265 µM) | relative viability (Decitabine + OSI-027; first compound 4 µM) | relative viability (Decitabine + Pictilisib; first compound 0.04 µM) | relative viability (Decitabine + Pictilisib; first compound 0.1265 µM) | relative viability (Decitabine + Pictilisib; first compound 0.4 µM) | relative viability (Decitabine + Pictilisib; first compound 1.265 µM) | relative viability (Decitabine + Pictilisib; first compound 4 µM)
1 | EMC-BAC-2 | 1.08 | 1.12 | 0.773 | 0.705 | 0.605 | 0.39 | 0.4 | 0.286 | 0.344 | 0.363 | 0.529 | 0.557 | 0.468 | 0.411 | 0.37
2 | EPLC-272H | 0.734 | 0.658 |  | 0.426 | 0.413 |  | 0.288 | 0.11 | 0.248 | 0.186 | 0.277 | 0.303 |  | 0.271 | 0.321
3 | H3255 | 0.201 | 0.331 | 0.353 | 0.328 | 0.276 |  | 0.478 | 0.435 | 0.5 | 0.535 | 0.189 | 0.462 | 0.342 | 0.331 | 0.358
4 | HARA | 0.9 | 0.66 | 0.568 | 0.512 | 0.399 | 0.251 | 0.257 | 0.164 | 0.112 | 0.111 | 0.367 | 0.564 | 0.285 | 0.236 | 0.15
5 | HCC-15 | 0.654 | 0.646 | 0.469 | 0.413 | 0.348 | 0.688 | 0.722 | 0.328 | 0.445 | 0.327 | 0.742 | 0.767 | 0.288 | 0.484 | 0.411
6 | HCC-44 | 0.78 | 0.74 | 0.362 | 0.408 | 0.425 |  | 0.739 | 0.232 | 0.364 | 0.49 | 0.537 | 0.71 | 0.353 | 0.412 | 0.372
7 | HCC-78 | 0.71 | 0.561 | 0.458 | 0.329 | 0.284 | 0.344 | 0.365 | 0.345 | 0.353 | 0.344 | 0.233 | 0.241 | 0.229 | 0.21 | 0.228
8 | HCC-366 | 0.92 | 0.906 | 0.382 | 0.232 | 0.133 | 0.859 | 0.915 | 0.485 | 0.253 | 0.176 | 0.221 | 0.221 | 0.229 | 0.11 | 0.0886
9 | HCC-827 |  | 0.471 | 0.404 | 0.269 | 0.939 | 0.129 | 0.37 | 0.311 | 0.202 | 0.27 | 0.511 | 0.63 | 0.618 | 0.505 | 0.62
10 | HOP-62 | 0.572 | 0.388 | 0.15 | 0.172 | 0.14 | 0.613 | 0.601 | 0.272 | 0.23 | 0.167 | 0.668 | 0.585 | 0.239 | 0.159 | 0.162
11 | IA-LM | 0.415 | 0.313 | 0.156 | 0.162 | 0.169 |  |  |  |  |  | 0.253 | 0.269 | 0.163 | 0.147 | 0.0969
12 | LC-2-ad | 0.323 | 0.325 | 0.253 | 0.197 | 0.148 | 0.738 | 0.705 | 0.663 | 0.457 | 0.479 | 0.359 | 0.37 | 0.495 | 0.3 | 0.275
